From the NIST ThermoML archive (doi:10.1016/j.tca.2008.10.009) come the findings set out here.

For the series the following is noted: Crystal, Rate of evaporation.

As usually defined, the vapor or sublimation pressure is the pressure of vapour in equilibrium with the condensed phase. With `CC(C)C[C@H](N)C(=O)O` [L-leucine], the “vapor or sublimation pressure” value by setting is: (420.7 K) 0.0009 kPa; (440.3 K) 0.0029 kPa; (469.9 K) 0.0425 kPa; (499.2 K) 0.5263 kPa; (517.5 K) 2.162 kPa.
